Measured values reported in patent US7075582B2, “Methods for identifying and using MarR family polypeptide binding compounds” (Paratek Pharmaceuticals, Inc., priority 2001, dated 2006).

What was measured:
MarR [1] = molecular target: T1, MarR (Escherichia coli, UniProt P27245); conditions: salicylate at millimolar concentrations; cited from earlier work
MarR [2] = molecular target: T1, MarR; conditions: salicylate at millimolar concentrations; cited from earlier work; remark: listed apart in the source
[3] = molecular target: MarR (wild type, Escherichia coli), one subunit of the MarR homodimer (E. coli); assay: X-ray crystal structure, MarR-salicylate co-crystal

T1 sequence (P27245 whole entry): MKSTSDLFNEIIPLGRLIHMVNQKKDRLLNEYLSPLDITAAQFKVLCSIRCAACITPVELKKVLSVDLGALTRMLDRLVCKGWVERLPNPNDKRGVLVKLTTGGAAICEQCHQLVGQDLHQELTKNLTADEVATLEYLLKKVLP

O=C([O-])c1ccccc1O.[Na+] [sodium salicylate]
MarR activity in vitro (MarR [1]): inhibit MarR activity
MarR activity in whole cells (MarR [2]): inhibit MarR activity

MarR (wild type, Escherichia coli), one subunit of the MarR homodimer
buried surface area (N-/C-terminal hydrophobic core) [3]: 3570 Å^2
total buried surface area for the whole dimer [3]: 3700 Å^2
